Data on 9 compounds can be found in PMC3995012, “The Cyanobactin Heterocyclase Enzyme: A Processive Adenylase That Operates with a Defined Order of Reaction” (Angewandte Chemie (International Ed. in English), 2013).

The target in assay [1] is TruD. Briefly: ITC, injection of nucleosides into TruD solutions. The settings on record: for Kd: one-site model. It counts as binding, Prochloron spp. The protocol:
(§1) TruD solutions. The top panels show raw data representing the response to injections, the bottom panels show integrated heats of injections (!) and the best fit (— ) to the […]
(§2) nucleoside. […]
(§3) ITC experiments were carried out using a VP-ITC instrument (MicroCal) in TruD sample buffer (150 mM NaCl, 10 mM HEPES pH 7.4, 1 mM TCEP) at 20 or 25 °C.
(§4) Protein concentrations were determined using absorbance at 280 nm and predicted extinction coefficients (ProtParam, ExPASy) used. The concentration of PatEY53A, which lacks absorbance at 280 nm, was based on absorbance at 230 nm. All solutions were dialyzed overnight. Nucleotides and the #25 peptide were dissolved in TruD sample buffer and the pH was adjusted with small amounts of 1 M NaOH to match the buffer. Cell and syringe solutions were degassed at 18 or 23 °C for 15 min.
Titrations were performed as follows: one injection of 2 µl followed by injections of 5-10 µl at an injection speed of 0.5 µl/min. The stirring speed was 307 rpm; the delay between the injections was 4-6 min. To take into account heats of dilution, blank titrations were performed by injecting ligand solution into TruD sample buffer and the averaged heat of dilution was subtracted from the main experiment. Blank titrations were omitted in cases of saturated binding where the averaged residual signal of the last injections was used to determine the heat of dilution. Raw data were processed using MicroCal Origin software. […]
(§5) NMR experiments were performed at 10 °C on a Bruker DRX500 spectrometer equipped with a 5mm TXIz probe. […] Aliquots of 646 µM TruD were added to final concentrations of 50, 100 and 150 µM, and HSQCs were recorded after each addition. For heterocyclization monitoring, the samples contained 200 µM u-15N-PatE precursor peptide and were incubated at 10 °C with 5 µM TruD in heterocyclization buffer with 5% D2O, and spectra were recorded at progressively longer intervals (initially 0.5 h, then 1 h, then 2 h). […]
For sequential assignment, a 1.0 mM sample of u-13C, 15N-PatE precursor peptide in heterocyclization buffer was prepared. […] Equivalent spectra were recorded for fully heterocyclized u-13C, 15N-PatE (concentration 1.0 mM) and a sample where the enzymatic transformation was interrupted after 8 h by gel filtration on a Superdex S75 column (GE Healthcare) in TruD sample buffer (see ITC experimental section), thus allowing assignment of the reaction intermediate. All spectra were processed with NMRPipe ,$- and analyzed with CCPN Analysis 2.1 ,%-.
31P NMR experiments were performed at 10 °C on a Bruker AVANCE III spectrometer equipped with a 5mm BBFO+ (Smart) probe and required the substitution of sample buffer TCEP with DTT. […] 31P NMR spectra were recorded with broadband power-gated 1H decoupling and relaxation delay D1 = 1.5s. […]
A general note: In ITC the heat of successive injections is recorded.

For assay [2], the target named is T1, TruD (uncultured Prochloron sp. 06037A, UniProt B2KYG8).
T1 construct: codon-optimized full-length, N-terminal His6-tag removed by TEV protease, expressed in E. coli BL21 (DE3); homodimer with structural Zn
T1 sequence (B2KYG8 2-781): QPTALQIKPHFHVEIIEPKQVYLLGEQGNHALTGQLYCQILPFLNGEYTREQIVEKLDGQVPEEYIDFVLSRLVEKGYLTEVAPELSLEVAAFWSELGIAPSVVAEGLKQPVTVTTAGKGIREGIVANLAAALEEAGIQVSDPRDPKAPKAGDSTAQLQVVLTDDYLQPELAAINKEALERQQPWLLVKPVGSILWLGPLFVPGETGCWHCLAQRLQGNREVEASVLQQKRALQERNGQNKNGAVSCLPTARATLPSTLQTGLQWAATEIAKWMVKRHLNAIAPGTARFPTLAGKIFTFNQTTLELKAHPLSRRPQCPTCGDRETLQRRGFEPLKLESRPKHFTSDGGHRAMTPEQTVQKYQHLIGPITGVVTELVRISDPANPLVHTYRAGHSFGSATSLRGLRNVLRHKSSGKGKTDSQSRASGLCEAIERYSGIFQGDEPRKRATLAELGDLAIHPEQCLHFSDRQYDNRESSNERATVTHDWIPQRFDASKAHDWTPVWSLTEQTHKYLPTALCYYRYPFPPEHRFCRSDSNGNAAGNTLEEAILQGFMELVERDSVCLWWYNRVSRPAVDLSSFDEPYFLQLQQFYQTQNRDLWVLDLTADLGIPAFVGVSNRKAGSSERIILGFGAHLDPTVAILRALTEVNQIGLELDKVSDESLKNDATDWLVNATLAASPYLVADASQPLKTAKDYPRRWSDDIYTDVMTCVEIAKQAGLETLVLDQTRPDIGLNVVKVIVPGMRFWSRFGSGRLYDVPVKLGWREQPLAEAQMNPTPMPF
Briefly: Isothermal titration calorimetry (VP-ITC), nucleotide injected into TruD in 150 mM NaCl, 10 mM HEPES pH 7.4, 1 mM TCEP at 20 or 25 °C, fitted to a one-site model. The format is binding. The protocol: as §1, §2, §3, §4
Titrations were performed as follows: one injection of 2 µl followed by injections of 5-10 µl at an injection speed of 0.5 µl/min. The stirring speed was 307 rpm; the delay between the injections was 4-6 min. […]
as §5
For sequential assignment, a 1.0 mM sample of u-13C, 15N-PatE precursor peptide in heterocyclization buffer was prepared. […] Equivalent spectra were recorded for fully heterocyclized u-13C, 15N-PatE (concentration 1.0 mM) and a sample where the enzymatic transformation was interrupted after 8 h by gel filtration on a Superdex S75 column (GE Healthcare) in TruD sample buffer (see ITC experimental section), thus allowing assignment of the reaction intermediate. All spectra were processed with NMRPipe ,$- and analyzed with CCPN Analysis 2.1 ,%-. […]

Assay [3] relates to TruD. Briefly: Heterocyclization reactions analysed by MS (ESI, MALDI, fragmentation). The format is biochemical, Prochloron spp. The settings on record: for use as nucleotide cofactor for heterocyclization of PatE2 by TruD: PatE2 with TruD, LC-MS and HSQC NMR of products. The protocol:
for 20 min followed by passage through a 0.45 "m filter. The cleared lysate was applied to a Ni-sepharose FF column (GE Healthcare) equilibrated with urea lysis buffer and protein eluted with urea lysis buffer containing 250 mM imidazole. The eluate was then supplemented with 10 mM DTT and incubated at room temperature for 30 min before size-exclusion chromatography (Superdex 75, GE Healthcare) in 150 mM NaCl, 10 mM HEPES pH 7.4, 1 mM TCEP. Peak fractions were pooled and […]
PatE for NMR studies was produced as above, except that E. coli were grown in M9 minimal medium ,*- prepared with 15NH4Cl (Sigma) and additionally with 13C6-glucose (Sigma) for doubly labeled protein. Cells were grown to an optical density at 600 nm of 0.6, at which point expression was induced by addition of 0.5 mM IPTG and grown over night at 30 °C.
Heterocyclization reactions
For all heterocyclization reactions for MS analysis, 100 µM substrate (PatE, PatE mutants and peptides) was incubated with 0.5 µM enzyme in heterocyclization buffer (150 mM NaCl, 10 mM HEPES pH 7.4, 1 mM TCEP, 5 mM ATP, 5 mM MgCl2) for 60 min, 70 min or 16 h at 37 °C. Samples were analyzed by ESI or MALDI MS (LCT, Micromass or 4800 MALDI TOF/TOF Analyzer, ABSciex). […]
For heterocyclization reactions to be monitored by NMR the PatE concentration was increased to 200 µM and 5 µM TruD was used and the incubation temperature reduced to 10 °C. For reaction endpoints analyzed by 31P NMR samples were […]
The assay is based on coupling the TruD-dependent formation of AMP to the lactate dehydrogenase oxidation decay of NADH with NADH concentration monitored by 340 nm absorbance. […]
each added to the assay in this order. […] The decay of NADH concentration were recorded for 40 min and calculated by using extinction coefficient for NADH (#340 = […]
MALDI MS was acquired using a 4800 MALDI TOF/TOF Analyzer (ABSciex, Foster City, CA) equipped with a Nd:YAG 355 nm laser in linear mode and calibrated using the [M+H]+ and [M+2H]2+ peaks of ubiquitin. The spot was analyzed in positive MS mode between 3000 and 10000 m/z, by averaging 1000 laser spots. […]

Setting [4] is: VP-ITC, 150 mM NaCl, 10 mM HEPES pH 7.4, 1 mM TCEP, 20 or 25 °C, read-out: KD.

“Also recorded” adds a separate entry of the source. Like-named read-outs stand apart in the source and are kept apart here.

As for `Nc1ncnc2c1ncn2[C@@H]1O[C@H](COP(=O)(O)O)[C@@H](O)[C@H]1O` [AMP], the Kd on TruD [1] (setting [4]) was found to be 12 µM.

Take `Nc1ncnc2c1ncn2[C@@H]1O[C@H](COP(=O)(O)O)[C@@H](O)[C@H]1O` [AMP, adenosine 5'-monophosphate]: the Kd on TruD [2] (read-out: KD) is 12 µM.

Take `Nc1nc2c(ncn2[C@@H]2O[C@H](COP(=O)(O)OP(=O)(O)OP(=O)(O)O)[C@@H](O)[C@H]2O)c(=O)[nH]1` [GTP]: the “use as nucleotide cofactor for heterocyclization of PatE2 by TruD” value in the assay with TruD [3] is “can catalyze heterocyclization of cysteine”.

As for “ITACITFC [core peptide, the eight-residue core peptide itself]”, the “processing (heterocyclization of cysteines) by TruD” value with TruD [3] (100 µM substrate, 0.5 µM enzyme, 150 mM NaCl, 10 mM HEPES pH 7.4, 1 mM TCEP, 5 mM ATP, 5 mM MgCl2, 60 min, 70 min or 16 h at 37 °C, ESI or MALDI MS) was “No reaction”.

As to `Nc1ncnc2c1ncn2[C@@H]1O[C@H](COP(=O)(O)OP(=O)(O)O)[C@@H](O)[C@H]1O` [ADP], on TruD [1] (ADP decomposes slowly, only the rapidly emerging endothermic parts of the ITC signals analysed, read-out: apparent KD), the Kd came out at 20 µM.

Regarding `Nc1ncnc2c1ncn2[C@@H]1O[C@H](COP(=O)(O)OP(=O)(O)OP(=O)(O)O)[C@@H](O)[C@H]1O` [ATP], the Kd on TruD [1] (setting [4]) turned out to be 19 µM.

Regarding `Nc1ncnc2c1ncn2[C@@H]1O[C@H](COP(=O)(O)OP(=O)(O)O)[C@@H](O)[C@H]1O` [ADP, adenosine 5'-diphosphate], on TruD [2] (read-out: KD), the Kd turned out to be 20 µM.

In the case of `Cc1cn([C@H]2C[C@H](O)[C@@H](COP(=O)(O)OP(=O)(O)OP(=O)(O)O)O2)c(=O)[nH]c1=O` [dTTP], the “binding to TruD in ITC experiments” value with TruD [1] (injection into a TruD solution) is on record as “not report binding under these conditions; also recorded: does not bind”. Besides, the “use as nucleotide cofactor for heterocyclization of PatE2 by TruD” value in the assay with TruD [3] was “can catalyze heterocyclization of cysteine”.

As for `Nc1ncnc2c1ncn2[C@@H]1O[C@H](COP(=O)(O)OP(=O)(O)OP(=O)(O)O)[C@@H](O)[C@H]1O` [ATP, adenosine 5'-triphosphate], the Kd at TruD [2] was 19 µM.
